Data taken from PMC11243320, “Tailoring Fibroblast-Activation Protein Targeting for Theranostics: A Comparative Preclinical Evaluation of the ^68Ga- and ^177Lu-Labeled Monomeric and Dimeric Fibroblast-Activation Protein Inhibitors DOTA.SA.FAPi and DOTAGA.(SA.FAPi)2” (Molecules, 2024).

System: U87MG tumor-bearing mice
Experiment: Ex vivo biodistribution of 68Ga-labeled radiotracers in U87MG xenografts
Protocol: U87MG and PC3 tumor-bearing mice: Female athymic BALB/c (6 weeks/16–20 g) and male athymic BALB/c nude mice (6 weeks/20–25 g) were implanted with U87MG or PC3 cells (5 × 10^6/100 µL PBS) into their right shoulder, respectively. The animals were used for biodistribution and PET/SPECT/CT imaging studies (Animal License No: BE98/2021).
Ten pmol (0.08–0.1 MBq) of the radiotracers in 100 µL of NaCl 0.9% were injected intravenously into the tail vein of U87MG and PC3 tumor-bearing mice and biodistribution studies were conducted at 1, 2, and 3 h after injection.
Saturation Binding Studies […]
The radioactivity of the culture medium, the receptor bound , the internalized and the externalized fractions were measured in a γ -counter. The externalized fraction of radioactivity was ex-pressed as the percentage of the total internalized amount.
[68Ga]Ga -DOTA.SA.FAPi and [ 68Ga]Ga -DOTAGA.(SA.FAPi) 2
Ten pmol ( 0.08 –0.1 MBq) of [68Ga]Ga -monomer and [ 68Ga]Ga -dimer in 100 µ L of NaCl 0.9% were injected intravenously into the tail vein of U87MG or PC3 tumor bearing mice . The PC3 tumor-bearing mice were used between the 15th and 17th day after the xenograft implantation and the size was 281 ± 75 mm3. The U87MG tumor-bearing mice were used between the 7th and 9th day after the implantation and the size was 210 ± 34 mm3. Animals were terminally anesthetized by intraperitoneal injection of an overdose of pento-barbital natrium (150 mg/kg; Streuli Pharma SA, Uznach, Switzerland) at 1, 2 and 3 h after injection of the radiotracers. The organs of interest were dissected and weighed, and the radioactivity in the tissue samples […]
was counted in a γ-counter. Biodistribution data are given as the percent of injected activity per gram of tissue (% IA/g) and as means ± SD (n = 4). […]
each radiotracer along with 20 nmol of UAMC1110 (total injected volume: 100 µL) and biodistribution stud-ies were performed 2 h after injection.
[177Lu]Lu-DOTA.SA.FAPi and [177Lu]Lu-DOTAGA.(SA.FAPi)2
Ten pmol (0.06-0.08 MBq) of [177Lu]Lu-monomer and [177Lu]Lu-dimer in 100 µL of NaCl 0.9% were injected intravenously into the tail vein of PC3 tumor-bearing mice. The PC3 tumor-bearing mice were used between the 15th and 17th day after the xenograft implantation and its size was 281 ± 75 mm3. Animals were terminally anesthetized by intraperitoneal injection of an overdose of pentobarbital natrium (150 mg/kg; Streuli Pharma SA, Uznach, Switzerland) 1, 4, 24 and 48 h after the injection of [177Lu]Lu-DOTA.SA.FAPi and at 4, 24, 48, 72 and 96 h after the injection of [177Lu]Lu-DOTAGA.(SA.FAPi)2. The organs of interest were dissected and weighed, and the radioactivity in the tissue samples was counted in a γ-counter. The biodistribution data are given as the percent of injected activity per gram of tissue (% IA/g) and as means ± SD (n = 4). […]
blood pools or if they were necrotic. Both tumor types were “clean” without extended vascularization; there […]
Small Animal Imaging Studies
PET images were obtained after injection of 200 pmol of [68Ga]Ga-DOTA.SA.FAPi and [68Ga]Ga-DOT-AGA.(SA.FAPi)2 (1.0–1.6 MBq/100 μL) into U87MG or PC3 xenografts at 1, 2 and 3 h after injection. Static imaging was acquired for a time period between 10 and 45 min at 1, 2 and 3 h post injection, respectively.
To visualize the extent of FAP-specific tumor uptake, PET/CT blocking studies were performed as described above, and static scans were obtained for 30 min 2 h after the injection of the radiotracer along with the blocking agent (20 nmol).
PET images were corrected for gallium-68 decay and reconstructed with 12 iterations of the maximum a posteriori (MAP) algorithm using a voxel size of 0.25 mm. No correction was applied for attenuation. In addition, a point spread function iterative deconvolution was applied. The images were normalized, filtered using a Gaussian 3D algorithm with a 1.3 mm isotropic kernel and generated using PMOD software. The CT was carried out using step and shoot mode and employed 45 kVp and 400 uA as settings. The images […]

[1] = 2 h blocking (20 nmol UAMC1110)

Q: Which results are given for `N#C[C@@H]1CC(F)(F)CN1C(=O)CNC(=O)c1ccnc2ccc(OCCCCNc3c(NCCNC(=O)CN4CCN(CC(=O)[O-])CCN(CC(=O)[O-])CCN(CC(=O)[O-])CC4)c(=O)c3=O)cc12.[68Ga+3]` [[^68Ga]Ga-DOTA.SA.FAPi]?
A: Biodistribution Blood (1 h): 13.4 ± 0.2 % IA/g; Biodistribution Bone (1 h): 2.1 ± 0.2 % IA/g; Biodistribution Heart (1 h): 4.9 ± 0.6 % IA/g; Biodistribution Intestine (1 h): 2.9 ± 0.5 % IA/g; Biodistribution Kidney (1 h): 3.5 ± 0.7 % IA/g; Biodistribution Liver (1 h): 3.2 ± 0.4 % IA/g; Biodistribution Lung (1 h): 3.2 ± 1.7 % IA/g; Biodistribution Muscle (1 h): 2.6 ± 1.4 % IA/g; Biodistribution Pancreas (1 h): 9.7 ± 2.7 % IA/g; Biodistribution Spleen (1 h): 2.3 ± 0.4 % IA/g; Biodistribution Stomach (1 h): 2.1 ± 0.6 % IA/g; Biodistribution U87MG-Tumor (1 h): 6.5 ± 0.7 % IA/g; Tumor/Blood ratio (1 h): 0.5 ± 0.03; Tumor/Liver ratio (1 h): 2.0 ± 0.3; Tumor/Muscle ratio (1 h): 2.3 ± 0.7; Tumor/Pancreas ratio (1 h): 0.7 ± 0.2; Biodistribution Blood (2 h): 8.5 ± 1.5 % IA/g; Biodistribution Bone (2 h): 1.3 ± 0.2 % IA/g; Biodistribution Heart (2 h): 3.1 ± 0.9 % IA/g; Biodistribution Intestine (2 h): 3.2 ± 0.7 % IA/g; Biodistribution Kidney (2 h): 2.7 ± 0.6 % IA/g; Biodistribution Liver (2 h): 3.1 ± 0.9 % IA/g; Biodistribution Lung (2 h): 2.2 ± 1.0 % IA/g; Biodistribution Muscle (2 h): 2.8 ± 1.1 % IA/g; Biodistribution Pancreas (2 h): 10.5 ± 2.8 % IA/g; Biodistribution Spleen (2 h): 1.6 ± 0.5 % IA/g; Biodistribution Stomach (2 h): 2.0 ± 0.5 % IA/g; Biodistribution U87MG-Tumor (2 h): 5.2 ± 1.4 % IA/g; Tumor/Blood ratio (2 h): 0.7 ± 0.3; Tumor/Liver ratio (2 h): 1.7 ± 0.5; Tumor/Muscle ratio (2 h): 1.9 ± 1.5; Tumor/Pancreas ratio (2 h): 0.5 ± 0.2; Biodistribution Blood [1]: 0.5 ± 0.1 % IA/g; Biodistribution Bone [1]: 1.7 ± 0.6 % IA/g; Biodistribution Heart [1]: 0.7 ± 0.3 % IA/g; Biodistribution Intestine [1]: 1.3 ± 0.1 % IA/g; Biodistribution Kidney [1]: 2.5 ± 0.8 % IA/g; Biodistribution Liver [1]: 0.3 ± 0.03 % IA/g; Biodistribution Lung [1]: 1.1 ± 0.2 % IA/g; Biodistribution Muscle [1]: 1.4 ± 0.8 % IA/g; Biodistribution Pancreas [1]: 0.6 ± 0.4 % IA/g; Biodistribution Spleen [1]: 0.7 ± 0.3 % IA/g; Biodistribution Stomach [1]: 0.7 ± 0.4 % IA/g; Biodistribution U87MG-Tumor [1]: 1.1 ± 0.8 % IA/g; Biodistribution Blood (3 h): 6.2 ± 0.5 % IA/g; Biodistribution Bone (3 h): 3.0 ± 1.6 % IA/g; Biodistribution Heart (3 h): 3.7 ± 0.7 % IA/g; Biodistribution Intestine (3 h): 3.5 ± 0.7 % IA/g; Biodistribution Kidney (3 h): 3.4 ± 0.3 % IA/g; Biodistribution Liver (3 h): 3.9 ± 0.3 % IA/g; Biodistribution Lung (3 h): 3.1 ± 1.0 % IA/g; Biodistribution Muscle (3 h): 3.1 ± 0.9 % IA/g; Biodistribution Pancreas (3 h): 8.7 ± 1.3 % IA/g; Biodistribution Spleen (3 h): 2.8 ± 1.0 % IA/g; Biodistribution Stomach (3 h): 2.2 ± 0.5 % IA/g; Biodistribution U87MG-Tumor (3 h): 4.9 ± 1.0 % IA/g; Tumor/Blood ratio (3 h): 0.8 ± 0.3; Tumor/Liver ratio (3 h): 1.3 ± 0.5; Tumor/Muscle ratio (3 h): 1.7 ± 1.2; Tumor/Pancreas ratio (3 h): 0.6 ± 0.3
